# According to US20230192701A1, “BICYCLIC KINASE INHIBITORS AND USES THEREOF” (iOmx Therapeutics AG, priority 2020, published 2023):
# Read-outs that look alike come from different tables or passages of the source.
# Legend:
# SIK3 = SIK3 (Homo sapiens, UniProt Q9Y2K2); assay: radiometric protein kinase assay (33PanQinase Activity Assay), SIK3; type: biochemical
# Experimental: (§1) The IC50s of the compounds against the SIK family of protein-serine/threonine kinases (SIK2 and SIK3) were determined as followed. Briefly, a radiometric protein kinase assay (33PanQinase® Activity Assay) was used for measuring the kinase activity of the two protein kinases. The kinase assays were performed in 96-well FlashPlates™ from PerkinElmer (Boston, Mass., USA) in a 50 uL reaction volume. The reaction cocktail was pipetted in four steps in the following order: • […] (standard buffer/[gamma-33P]-ATP) • 10 uL of ATP solution (in water) • 5 uL of test compound (in 10% DMSO) • 20 uL enzyme/substrate mix
# (§2) The following amounts of enzyme and applicable substrate were used per well:
# (§3) The reaction cocktails were incubated at 30 °C for 60 minutes. The reaction was stopped with 50 uL of 2% (v/v) H3PO4, plates were aspirated and washed two times with 200 μL 0.9% (w/v) NaCl. Incorporation of 33Pi was determined with a microplate scintillation counter (Microbeta, Wallac). All assays were performed with a BeckmanCoulter/SAGIAN™ Core System.
# SIK2 = SIK2 (Homo sapiens, UniProt Q9H0K1); assay: radiometric protein kinase assay (33PanQinase Activity Assay), SIK2; type: biochemical
# Sequence of SIK2 (Q9H0K1 whole entry): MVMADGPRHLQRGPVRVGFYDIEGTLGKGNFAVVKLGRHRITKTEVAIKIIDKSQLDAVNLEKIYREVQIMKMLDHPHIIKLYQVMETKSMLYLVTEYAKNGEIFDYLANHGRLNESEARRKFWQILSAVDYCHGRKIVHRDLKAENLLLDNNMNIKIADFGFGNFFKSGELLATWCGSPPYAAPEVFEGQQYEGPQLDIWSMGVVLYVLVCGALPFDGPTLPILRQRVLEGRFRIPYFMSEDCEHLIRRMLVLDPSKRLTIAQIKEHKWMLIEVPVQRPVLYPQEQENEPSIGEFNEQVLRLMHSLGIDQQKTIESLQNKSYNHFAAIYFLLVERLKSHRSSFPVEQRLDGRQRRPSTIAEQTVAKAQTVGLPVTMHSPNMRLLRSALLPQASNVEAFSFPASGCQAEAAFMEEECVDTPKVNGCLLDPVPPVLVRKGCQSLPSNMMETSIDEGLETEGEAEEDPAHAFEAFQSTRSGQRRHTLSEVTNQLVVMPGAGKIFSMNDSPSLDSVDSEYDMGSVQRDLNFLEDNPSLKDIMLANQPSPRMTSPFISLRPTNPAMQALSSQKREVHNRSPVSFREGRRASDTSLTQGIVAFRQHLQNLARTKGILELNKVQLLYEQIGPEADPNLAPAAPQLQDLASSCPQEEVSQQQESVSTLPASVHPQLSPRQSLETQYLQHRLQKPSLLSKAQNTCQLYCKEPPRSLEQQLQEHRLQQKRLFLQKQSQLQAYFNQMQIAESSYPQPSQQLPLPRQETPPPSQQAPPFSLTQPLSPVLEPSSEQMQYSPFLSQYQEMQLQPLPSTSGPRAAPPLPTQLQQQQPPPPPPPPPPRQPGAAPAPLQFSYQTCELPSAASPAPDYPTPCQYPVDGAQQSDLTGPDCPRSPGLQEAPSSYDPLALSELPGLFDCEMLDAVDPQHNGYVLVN
# Experimental: as §1, §2, §3
# HCT116 and PANC1 = assay: toxicity against the cell lines in the absence of TNF; type: cell-based; conditions: 0 ng/mL TNF, up to concentrations of 10 uM
# Experimental: Typically, those compounds of Formula (I) tested were less toxic against the cell lines than the prior art compound PY1 when tested (eg, in the absence of TNF), especially against the human cell lines such as HCT116 (data not shown).
# (§4) Cell viability of HCT116 tumour cells was measured using the CellTiter-Glo (CTG) luminescent cell viability assay (Promega, Madison, USA) according to the manufacturer's protocol. In short, 1×10^3 HCT116 cells were seeded in a 384-well plate for 24 h and subsequently treated with different concentrations of compounds and 10 ng/ml rHuTNF for 72 h at 37° C. and 5% CO2. After incubation, CTG reagent was added to the wells and cells were lysed for 10 min. Read-out was performed using the Tecan reader with 0.1 sec counting time. TNF-induced cell killing in human PANC1 and murine MC38 tumour cells was measured analogously to the assay in human HCT116 cells, except that for the PANC1 assay 100 ng/ml rHuTNF and for the MC38 assay 100 ng/ml rMuTNF were used.
# HCT116 tumour cells = assay: TNF-sensitised cell viability assay (CellTiter-Glo), HCT116; type: cell-based, human; conditions: for IC50: 10 ng/ml rHuTNF, 72 h
# Experimental: as §4
# PANC1 tumour cells = assay: TNF-sensitised cell viability assay (CellTiter-Glo), PANC1; type: cell-based, human; conditions: for IC50: 100 ng/ml rHuTNF, 72 h
# Experimental: as §4
# MC38 tumour cells = assay: TNF-sensitised cell viability assay (CellTiter-Glo), MC38; type: cell-based, murine; conditions: 100 ng/ml rMuTNF, 72 h
# Experimental: as §4
# human skin explants = conditions: topical treatment; Mujahid et al 2017; cited from earlier work
# [1] = system: MPAL-associated AML cell lines (including MOLM-13 and MV4-11); conditions: Tarumoto et al 2018; cited from earlier work
# [2] = Mouse hepatocyte stability; type: in vitro ADME; conditions: mouse hepatocytes, 37°C
# Experimental: (§5) Determination of human and mice hepatocyte stability was conducted as follows. 200 uL of the respective hepatocyte cell suspension (2×10e6/ml) was preincubated at 37° C. for 10 min. Then, 200 uL of a 2 uM working stock of the test compound was added to the hepatocyte cell suspension, and the mixture was further incubated at 37° C. and 500 rpm. The reaction was stopped at 30, 60 and 120 min by precipitating 50 uL of the incubation mixture with 200 uL of acetonitrile. Samples were vortexed for 5 min at 1200 rpm and centrifuged at 4000 rpm for 10 min. Intrinsic clearance and half-life were analysed using LC-MS/MS.
# (§6) LC-MS/MS was performed for all assays using a C18 column (50*4.6 mm, 5 um) for the CaCo2 assay, or a C18 column (50*4.6 mm, 4 um) for the other assays. The mobile phases used were 10 mM Ammonium Acetate with 0.1% Formic acid (aqueous) and 100% Acetonitrile (organic).
# AML = conditions: administered intraperitoneally; Tarumoto et al 2020; cited from earlier work
# [3] = Human plasma-protein binding (RED method); type: in vitro ADME
# Experimental: (§7) Human and mice protein plasma binding was determined using the Plasma Protein Binding by RED Method. Briefly, 200 uL of the respective plasma containing the test compound (10 uM) was spiked into the donor well (RED Chamber) of the insert. 350 uL of PBS was spiked into receiver well (white chamber). The plate was incubated at 37° C. in a thermomixer at 400 rpm for 5 hours. The samples were matrix equilibrated with opposite matrix (25 uL blank buffet/Plasma). Matrix matched samples were precipitated with 200 uL of Acetonitrile containing Internal standard. Samples were vortexed at 1000 rpm for 5 min and centrifuged at 4000 rpm for 10 min. The supernatant was diluted 2 folds with water and % bound and unbound protein and % recovery at 5 h was determined by LC-MS/MS.
# as §6
# [4] = Human liver microsomal stability; type: in vitro ADME; conditions: pH 7.4; human liver microsomes, NADPH, 37°C
# Experimental: (§8) Briefly, human and liver microsomal stability was determined by pre-incubation of 2.5 uL compound and 75 uL of the respective liver microsomes in potassium phosphate buffer (pH 7.4) at 37° C. After adding of NADPH as cofactor and further incubation at 37° C. for 60 min, acetonitrile containing internal standard was added, and the sample was vortexed for 5 min at 1200 rpm and then centrifuged 10 min at 4000 rpm.
# as §6
# Kinetic solubility assay = type: physicochemical; conditions: aqueous buffer, kinetic from dmso stock; PBS buffer pH 7.4, 1.0% DMSO, 24 h at RT
# Experimental: The Kinetic solubility assay was conducted as follows. 4 uL compound of the 50 mM DMSO stock was added to deep well plate containing 396 uL PBS buffer (pH 7.4). The DMSO content in the sample was 1.0%, and the compound concentration 500 μM. The sample plate was vortexed at 800 rpm for 24 h at RT on a thermomixer. At the end of the incubation period, the sample plate was centrifuged at 4000 rpm for 10 mins. 3 uL of supernatant was transferred to well containing 297 uL of ISTD in Acetonitrile water:50:50, v/v and analysed in LC-MS/MS against a calibration curve (CC).
# [5] = Murine plasma protein binding (RED method); type: in vitro ADME; conditions: mouse
# Experimental: as §7, §6
# [6] = Mouse liver microsomal stability; type: in vitro ADME; conditions: pH 7.4; mouse liver microsomes, NADPH, 37°C
# Experimental: as §8, §6
# [7] = Human hepatocyte stability; type: in vitro ADME; conditions: human hepatocytes, 37°C
# Experimental: as §5, §6
# Caco-2 cells monolayer = assay: CaCo2 permeability and efflux assay; type: in vitro ADME; conditions: CaCo2, apical to basal, 120 min
# Experimental: (§9) To determine apparent permeability of the compounds an assay using a Caco-2 cells monolayer (cultured for 21d) in a 24-well format (poly carbonate high pore density plate with 0.4 μm pore size and a 0.7 cm2 active membrane area; Millipore) was performed as followed. 800 uL of DMEM was added to the basal compartment of the 24 well-plate and 60000 CaCo2 cells/well were seeded in the apical wells and incubated in a CO2 incubator at 37° C. for proliferation of cells. Apical to Basal permeability was determined by adding 400 uL of test compound to the apical well and 800 uL of HBSS buffer with 2% BSA to the basal well. 25 uL of basal sample was collected after 120 min and processed as stated below. Basal to Apical permeability was determined by adding 800 uL of test compound to basal well and 400 uL of HBSS buffer with 2% BSA to apical well. 25 uL of apical sample was collected after 120 min and processed as stated below. The samples were processed by diluting the donor samples 1:1 with HBSS containing 2% BSA and the receiver samples 1:1 with HBSS buffer. Samples were then precipitated with 200 uL of acetonitrile containing internal standard, vortexed for 5 min at 1000 rpm, and centrifuged at 4000 rpm for 20 min. 150 uL of supernatant was diluted with 150 uL of water and submitted for LC-MS/MS analysis, and Bi-directional (A-B and B-A) apparent permeability (Papp) was calculated.
# as §6
# [8] = CaCo2 permeability and efflux assay; type: in vitro ADME; conditions: human, Caco-2; CaCo2, mean efflux ratio
# Experimental: as §9, §6
# [9] = pharmacokinetic study, plasma level after single po or iv administration; type: in vivo, male CD1 mice; conditions: mice
# Experimental: Screening PK properties of compounds of Formula (I) are additionally determined, including plasma and free plasma concentration, as well as Cmax. For example, the free concentration of compound after a dose of eg 30 mg/kg po (per os) administered mice can be determined for certain time points after administrations.
# To further investigate PK properties of kinase inhibitors of Formula (I), the compounds are tested for in vivo drug exposure and potency in a full pharmacokinetic study with oral administration (per os, po).
# The experimental procedure and the determination of the pharmacokinetic parameters are investigated after single administration of each compound per gavage in male CD1 mice (Intonation Research Laboratories (Hyderabad, India)). The compounds are diluted in 5% DMSO+5% Solutol+90% water. Plasma level (eg sampling 0.25 h; 0.5 h; 1 h; 1.5 h; 2 h; 4 h; 6 h; 12 h; 24 h after drug administration) of the compounds are analysed by LC-MS/MS and pharmacokinetic parameters are determined using non-compartmental analysis and nominal dose levels of eg 30 mg/kg po and 1 mg/kg iv. Three animals are analysed per time point and each mouse is used for three plasma samplings in total.
# [10] = ATP 1.0 μM, substrate RBER-CHKtide
# Sequence of SIK3 (Q9Y2K2 whole entry): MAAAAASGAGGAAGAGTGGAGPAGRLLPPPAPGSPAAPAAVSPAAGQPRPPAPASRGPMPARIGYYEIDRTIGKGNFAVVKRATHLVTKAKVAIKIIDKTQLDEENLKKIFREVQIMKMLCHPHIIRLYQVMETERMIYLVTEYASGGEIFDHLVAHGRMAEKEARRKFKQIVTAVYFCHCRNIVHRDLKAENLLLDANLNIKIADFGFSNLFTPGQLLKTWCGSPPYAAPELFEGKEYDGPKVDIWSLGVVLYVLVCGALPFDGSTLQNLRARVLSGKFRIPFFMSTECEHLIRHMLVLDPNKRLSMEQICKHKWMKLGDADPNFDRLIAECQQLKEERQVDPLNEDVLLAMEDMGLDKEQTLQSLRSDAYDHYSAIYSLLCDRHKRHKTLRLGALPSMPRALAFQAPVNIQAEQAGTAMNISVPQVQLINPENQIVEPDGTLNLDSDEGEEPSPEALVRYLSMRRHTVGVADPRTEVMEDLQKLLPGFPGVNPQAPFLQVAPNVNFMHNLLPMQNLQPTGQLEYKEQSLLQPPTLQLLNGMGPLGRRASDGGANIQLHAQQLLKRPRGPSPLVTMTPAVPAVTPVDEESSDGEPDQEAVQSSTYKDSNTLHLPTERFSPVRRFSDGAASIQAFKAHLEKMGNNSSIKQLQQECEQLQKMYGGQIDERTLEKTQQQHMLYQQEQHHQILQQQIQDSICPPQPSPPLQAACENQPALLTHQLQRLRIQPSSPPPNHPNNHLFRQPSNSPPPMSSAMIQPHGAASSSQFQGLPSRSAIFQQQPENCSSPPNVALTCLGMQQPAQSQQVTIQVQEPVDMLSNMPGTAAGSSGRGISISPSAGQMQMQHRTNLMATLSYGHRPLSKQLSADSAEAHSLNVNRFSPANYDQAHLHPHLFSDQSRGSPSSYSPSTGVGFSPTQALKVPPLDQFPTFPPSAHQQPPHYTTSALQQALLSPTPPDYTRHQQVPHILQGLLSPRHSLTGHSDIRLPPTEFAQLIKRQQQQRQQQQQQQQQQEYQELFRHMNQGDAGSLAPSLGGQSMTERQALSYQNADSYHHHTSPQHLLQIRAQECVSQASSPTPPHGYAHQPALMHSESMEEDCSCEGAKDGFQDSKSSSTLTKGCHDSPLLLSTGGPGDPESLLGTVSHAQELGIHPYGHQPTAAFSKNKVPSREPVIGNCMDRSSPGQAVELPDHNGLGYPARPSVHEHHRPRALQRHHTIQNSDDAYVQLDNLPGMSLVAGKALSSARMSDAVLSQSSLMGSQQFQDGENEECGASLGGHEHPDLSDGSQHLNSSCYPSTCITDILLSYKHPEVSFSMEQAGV
compound,measurement,setting,value
"COc1ccc(N2C(=O)N(c3c(CF)csc3Cl)Cc3cnc(Nc4ccc(N5CCN(C)CC5)cc4)nc32)nc1 [AA6, 3-(2-chloro-4-(fluoromethyl)thiophen-3-yl)-1-(5-methoxypyridin-2-yl)-7-((4-(4-methylpiperazin-1-yl)phenyl)amino)-3,4-dihydropyrimido[4,5-d]pyrimidin-2(l H)-one]",IC50,SIK3; [10],< 50 nM
same,inhibiting SIK3 compared to PY1,SIK3; in words,superior in inhibiting SIK2 and SIK3 compared to PY1
same,IC50,SIK2; [10],< 50 nM
same,inhibiting SIK2 compared to PY1,SIK2; in words,superior in inhibiting SIK2 and SIK3 compared to PY1
same,toxicity against the cell lines in the absence of TNF,HCT116 and PANC1,essentially non-toxic
same,sensitisation of HCT116 tumour cells to the cytotoxic effect of TNF compared to PY1,HCT116 tumour cells; in words,much stronger effect compared to the prior art compound PY1
same,IC50,HCT116 tumour cells; read-out: HCT116 IC50 (at 10 ng/ml rHuTNF),< 100 nM
same,sensitisation of PANC tumour cells to the cytotoxic effects of TNF compared to PY1,PANC1 tumour cells; in words,stronger effect than PY1
same,IC50,PANC1 tumour cells; read-out: PANC IC50 (at 100 ng/ml rHuTNF),100 to 500 nM
same,IC50,MC38 tumour cells; read-out: MC38 IC50 (at 100 ng/ml rMuTNF),500 to 1000 nM
COc1ccc(N(C(=O)Nc2c(C)cccc2C)c2cc(Nc3ccc(N4CCN(C)CC4)cc3)ncn2)c(OC)c1 [HG-9-91-01],eumelanisation in human skin,human skin explants,able to induce eumelanisation
same,viability of MPAL-associated AML cell lines,[1],strongly decreases viability
"COc1ccc(N2C(=O)N(c3c(C)cccc3Cl)Cc3cnc(Nc4ccc(C5CCN(C)CC5)cc4OC)nc32)nc1 [PY1, 3-(2-chloro-6-methylphenyl)-7-((2-methoxy-4-(1-methylpiperidin-4-yl)phenyl)amino)-1-(5-methoxypyridin-2-yl)-3,4-dihydropyrimido[4,5-d]pyrimidin-2(1H)-one, reference compound]",half-life at 1 uM,[2],1.25 h
same,AML progression in-vivo,AML,suppressed AML progression in-vivo
same,"recovery at 5 h, 10 uM",[3],53%
same,half-life,[4],2.57 h
same,solubility kinetic at 24 h,Kinetic solubility assay,3.6 µM
same,"recovery at 5 h, 10 uM",[5],42%
same,half-life,[6],1.45 h
same,half-life at 1 uM,[7],10.7 h
same,A > B(10 EE-06 cm/s),Caco-2 cells monolayer,9.5 10 EE-06 cm/s
same,efflux ratio at 120 min,[8],3.2
same,IC50,"HCT116 tumour cells; Homo sapiens, HCT-116, read-out: HCT116 IC50 (at 10 ng/ml rHuTNF)",500 to 1000 nM
same,IC50,"PANC1 tumour cells; Homo sapiens, PANC-1, read-out: PANC IC50 (at 100 ng/ml rHuTNF)",500 to 1000 nM
same,IC50,"MC38 tumour cells; Mus musculus, MC-38, read-out: MC38 IC50 (at 100 ng/ml rMuTNF)",500 to 1000 nM
same,compound detectable in plasma after 24 h,[9]; 1 mg/kg iv,No PY1 (the prior art compound YKL-05-099) was detectable after 24 h
same,compound detectable in plasma after 24 h,[9]; 30 mg/kg po,No PY1 (the prior art compound YKL-05-099) was detectable after 24 h
